Reference: US20240217978A1 (CHONG KUN DANG PHARMACEUTICAL CORP., priority 2021, published 2024)

Molecular target: human adenosine A2a receptor (Homo sapiens (Human), UniProt P29274)
Test: A2a receptor binding affinity, [3H]-NECA radioligand binding test
Settings: [3H]-NECA 37 nM; membrane from HEK-293 cells transfected with human adenosine A2a receptor
How it was run: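 IC50 values (μM) come from displacement of [3H]-NECA, used at 37 nM final, on human A2a receptor membranes from transfected HEK-293 cells. Incubation lasted one hour at room temperature in Tris/MgCl2/EDTA buffer, pH 7.4; filter-bound radioactivity was counted by scintillation.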

Sequence of human adenosine A2a receptor (P29274 whole entry): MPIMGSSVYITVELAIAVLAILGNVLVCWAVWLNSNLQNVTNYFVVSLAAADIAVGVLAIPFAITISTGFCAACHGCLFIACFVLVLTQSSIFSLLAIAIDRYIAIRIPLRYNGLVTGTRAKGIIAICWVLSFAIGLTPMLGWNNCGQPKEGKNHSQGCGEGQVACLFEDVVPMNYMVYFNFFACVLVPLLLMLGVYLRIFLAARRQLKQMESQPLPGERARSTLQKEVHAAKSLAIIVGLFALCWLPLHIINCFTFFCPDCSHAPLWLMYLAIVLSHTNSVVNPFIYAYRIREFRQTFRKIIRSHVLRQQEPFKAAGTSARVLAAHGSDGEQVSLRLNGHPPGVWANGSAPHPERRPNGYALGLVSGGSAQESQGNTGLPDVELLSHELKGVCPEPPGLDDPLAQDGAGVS

Row | Compound | IC50 [nM]
1 | Nc1nc(N[C@H](C(=O)N2CCN(c3ccc(F)cc3F)CC2)C2CCC2)nc2nc(-c3ccco3)nn12 [Example 169, (S)-2-((7-amino-2-(furan-2-yl)-[1,2,4]triazolo[1,5-a][1,3,5]triazin-5-yl)amino)-2-cyclobutyl-1-(4-(2,4-difluorophenyl)piperazin-1-yl)ethan-1-one] | 0.1
2 | CCCCN1CCN(C(=O)[C@@H]2CCCN2c2nc(N)c3nc(-c4ccc(C)o4)sc3n2)CC1 [Example 243, (S)-(1-(7-amino-2-(5-methylfuran-2-yl)thiazolo[5,4-d]pyrimidin-5-yl)pyrrolidin-2-yl)(4-butylpiperazin-1-yl)methanone] | 14
3 | C[C@H](Nc1nc(N)n2nc(-c3ccco3)nc2n1)C(=O)N1CC2(CCN(CC(C)(F)F)CC2)C1 [Example 366, (S)-2-((7-amino-2-(furan-2-yl)-[1,2,4]triazolo[1,5-a][1,3,5]triazin-5-yl)amino)-1-(7-(2,2-difluoropropyl)-2,7-diazaspiro[3-5]nonan-2-yl)propan-1-one] | 8
4 | Nc1nc(N[C@@H](Cc2ccccc2)C(=O)N2CCN(Cc3cccc(F)c3)CC2)nc2nc(-c3ccco3)nn12 [Example 17, (S)-2-((7-amino-2-(furan-2-yl)-[1,2,4]triazolo[1,5-a][1,3,5]triazin-5-yl)amino)-1-(4-(3-fluorobenzyl)piperazin-1-yl)-3-phenylpropan-1-one] | 0.135
5 | CC(C)(F)CN1CCN(C(=O)CNc2nc(N)n3nc(-c4ccco4)nc3n2)CC1 [Example 388, 2-((7-amino-2-(furan-2-yl)-[1,2,4]triazolo[1,5-a][1,3,5]triazin-5-yl)amino)-1-(4-(2-fluoro-2-methylpropyl)piperazin-1-yl)ethan-1-one] | 9
6 | CCCCN1CCN(C(=O)[C@@H](Nc2nc(N)n3nc(-c4ccco4)nc3n2)C(C)C)CC1 [Example 143, (S)-2-((7-amino-2-(furan-2-yl)-[1,2,4]triazolo[1,5-a][1,3,5]triazin-5-yl)amino)-1-(4-butylpiperazin-1-yl)-3-methylbutan-1-one] | 20
7 | CC(C)C[C@H](Nc1nc(N)n2nc(-c3ccco3)nc2n1)C(=O)N1CCN(c2ccc(F)cc2F)CC1 [Example 167, (S)-2-((7-amino-2-(furan-2-yl)-[1,2,4]triazolo[1,5-a][1,3,5]triazin-5-yl)amino)-1-(4-(2,4-difluorophenyl)piperazin-1-yl)-4-methylpentan-1-one] | 0.2
8 | Nc1nc(N[C@H](C(=O)N2CCN(c3ccc(F)cc3F)CC2)C2CCCCC2)nc2nc(-c3ccco3)nn12 [Example 11, (S)-2-((7-amino-2-(furan-2-yl)-[1,2,4]triazolo[1,5-a][1,3,5]triazin-5-yl)amino)-2-cyclohexyl-1-(4-(2,4-difluorophenyl)piperazin-1-yl)ethan-1-one] | 0.1
9 | CC(C)(O)CC(=O)N1CCN(C(=O)[C@@H]2CCN2c2nc(N)c3nc(-c4ccco4)sc3n2)CC1 [Example 275, (S)-1-(4-(1-(7-amino-2-(furan-2-yl)thiazolo[5,4-d]pyrimidin-5-yl)azetidin-2-carbonyl)piperazin-1-yl)-3-hydroxy-3-methylbutan-1-one] | 26
10 | CCCCN1CCN(C(=O)[C@@H](Nc2nc(N)n3nc(-c4ccco4)nc3n2)C2CCC2)CC1 [Example 177, (S)-2-((7-amino-2-(furan-2-yl)-[1,2,4]triazolo[1,5-a][1,3,5]triazin-5-yl)amino)-1-(4-butylpiperazin-1-yl)-2-cyclobutylethan-1-one] | 20
11 | C[C@H](Nc1nc(N)c2nc(-c3ccco3)sc2n1)C(=O)N1CCN(C(=O)CC(C)(C)O)CC1 [Example 340, 1-(4-((7-amino-2-(furan-2-yl)thiazolo[5,4-d]pyrimidin-5-yl)-L-alanyl)piperazin-1-yl)-3-hydroxy-3-methylbutan-1-one] | 74
12 | Nc1nc(N[C@H](C(=O)N2CCN(Cc3ccc(F)cc3F)CC2)c2ccccc2)nc2nc(-c3ccco3)nn12 [Example 14, (S)-2-((7-amino-2-(furan-2-yl)-[1,2,4]triazolo[1,5-a][1,3,5]triazin-5-yl)amino)-1-(4-(2,4-difluorobenzyl)piperazin-1-yl)-2-phenylethan-1-one] | 0.368
13 | Nc1nc(N[C@H](C(=O)N2CCN(c3nccs3)CC2)C2CCOCC2)nc2nc(-c3ccco3)nn12 [Example 249, (S)-2-((7-amino-2-(furan-2-yl)-[1,2,4]triazolo[1,5-a][1,3,5]triazin-5-yl)amino)-2-(tetrahydro-2H-pyran-4-yl)-1-(4-(thiazol-2-yl)piperazin-1-yl)ethan-1-one] | 9
14 | C[C@H](Nc1nc(N)n2nc(-c3ccco3)nc2n1)C(=O)N1C[C@@H]2C[C@H]1CN2Cc1ccc(F)cc1F [Example 32, (S)-2-((7-amino-2-(furan-2-yl)-[1,2,4]triazolo[1,5-a][1,3,5]triazin-5-yl)amino)-1-((1S, 4S)-5-(2,4-difluorobenzyl)-2,5-diazabicyclo[2.2.1]heptan-2-yl)propan-1-one] | 0.5

More lines, now with the values ahead:

Row | IC50 [nM] | Compound
15 | 17 | Cc1ccc(-c2nc3nc(N4CCC[C@H]4C(=O)N4CCN(CC(F)(F)F)CC4)nc(N)n3n2)o1 [Example 89, (S)-(1-(7-amino-2-(5-methylfuran-2-yl)-[1,2,4]triazolo[1,5-a][1,3,5]triazin-5-yl)pyrrolidin-2-yl)(4-(2,2,2-trifluoroethyl)piperazin-1-yl)methanone]
16 | 12 | CC(C)C1CCC(N2CCN(C(=O)[C@@H]3CCCN3c3nc(N)n4nc(-c5ccco5)nc4n3)CC2)CC1 (stereo partly drawn) [Example 153, (S)-(1-(7-amino-2-(furan-2-yl)-[1,2,4]triazolo[1,5-a][1,3,5]triazin-5-yl)pyrrolidin-2-yl)(4-(4-isopropylcyclohexyl)piperazin-1-yl)methanone]
17 | 12 | Nc1nc(N2C[C@H](O)C[C@H]2C(=O)N2CCN(c3ccc(F)cc3F)CC2)nc2nc(-c3ccco3)nn12 [Example 37]
18 | 10 | CC[C@H](Nc1nc(N)n2nc(-c3ccco3)nc2n1)C(=O)N1CCN(CC(C)(F)F)CC1 [Example 356, (S)-2-((7-amino-2-(furan-2-yl)-[1,2,4]triazolo[1,5-a][1,3,5]triazin-5-yl)amino)-1-(4-(2,2-difluoropropyl)piperazin-1-yl)butan-1-one]
19 | 6 | CC(C)(CN1CCN(C(=O)[C@@H]2CCCN2c2nc(N)n3nc(-c4ccco4)nc3n2)CC1)C(F)(F)F [Example 282, (S)-(1-(7-amino-2-(furan-2-yl)-[1,2,4]triazolo[1,5-a][1,3,5]triazin-5-yl)pyrrolidin-2-yl)(4-(3,3,3-trifluoro-2,2-dimethylpropyl)piperazin-1-yl)methanone]
20 | 1 | Nc1nc(N2CCC[C@H]2C(=O)N2CCC(C3CCN(CC(F)(F)F)CC3)CC2)nc2nc(-c3ccco3)nn12 [Example 206, (S)-(1-(7-amino-2-(furan-2-yl)-[1,2,4]triazolo[1,5-a][1,3,5]triazin-5-yl)pyrrolidin-2-yl)(1′-(2,2,2-trifluoroethyl)-[4,4′-bipiperidin]-1-yl)methanone]
21 | 11 | Nc1nc(N2CCC[C@H]2C(=O)N2CCN(C(=O)NC3CCCCC3)CC2)nc2nc(-c3ccco3)nn12 [Example 117, 4-((7-amino-2-(furan-2-yl)-[1,2,4]triazolo[1,5-a][1,3,5]triazin-5-yl)-L-prolyl)-N-cyclohexylpiperazin-1-carboxamide]
22 | 18 | CC(C)(F)CN1CCC(C2CCN(C(=O)[C@@H]3CCCN3c3cc4nc(-c5ccco5)nn4c(N)n3)CC2)CC1 [Example 395, (S)-(1-(5-amino-2-(furan-2-yl)-[1,2,4]triazolo[1,5-c]pyrimidin-7-yl)pyrrolidin-2-yl)(1′-(2-fluoro-2-methylpropyl)-[4,4′-bipiperidin]-1-yl)methanone]
23 | 5 | Nc1nc(N2CCC[C@H]2C(=O)N2CCN(CC3(C(F)(F)F)CCC3)CC2)nc2nc(-c3ccco3)nn12 [Example 284, (S)-(1-(7-amino-2-(furan-2-yl)-[1,2,4]triazolo[1,5-a][1,3,5]triazin-5-yl)pyrrolidin-2-yl)(4-((1-(trifluoromethyl)cyclobutyl)methyl)piperazin-1-yl)methanone]
24 | 18 | CC(C)(F)CN1CCN(C(=O)[C@@H](Nc2nc(N)n3nc(-c4ccco4)nc3n2)C2CC2)CC1 [Example 339, (S)-2-((7-amino-2-(furan-2-yl)-[1,2,4]triazolo[1,5-a][1,3,5]triazin-5-yl)amino)-2-cyclopropyl-1-(4-(2-fluoro-2-methylpropyl)piperazin-1-yl)ethan-1-one]
25 | 13 | C[C@H](Nc1nc(N)n2nc(-c3ccco3)nc2n1)C(=O)N1CCN(CC(C)(F)F)CC1 [Example 317, (S)-2-((7-amino-2-(furan-2-yl)-[1,2,4]triazolo[1,5-a][1,3,5]triazin-5-yl)amino)-1-(4-(2,2-difluoropropyl)piperazin-1-yl)propan-1-one]
26 | 6 | Nc1nc(N2CCC[C@H]2C(=O)N2CCN(C(=O)c3ccccc3)CC2)nc2nc(-c3ccco3)nn12 [Example 46]
27 | 11 | C[C@@H]1CN(CC(F)F)CCN1C(=O)[C@@H]1CCCN1c1nc(N)n2nc(-c3ccco3)nc2n1 [Example 371, ((S)-1-(7-amino-2-(furan-2-yl)-[1,2,4]triazolo[1,5-a][1,3,5]triazin-5-yl)pyrrolidin-2-yl)((R)-4-(2,2-difluoroethyl)-2-methylpiperazin-1-yl)methanone]
28 | 7 | Nc1nc(N2CCC[C@H]2C(=O)N2CCN(CC(F)(F)C(F)F)CC2)nc2nc(-c3ccco3)nn12 [Example 226, (S)-(1-(7-amino-2-(furan-2-yl)-[1,2,4]triazolo[1,5-a][1,3,5]triazin-5-yl)pyrrolidin-2-yl)(4-(2,2,3,3-tetrafluoropropyl)piperazin-1-yl)methanone]
29 | 6 | CN1CCN(c2cccc(C(=O)N3CCN(C(=O)[C@@H]4CCCN4c4nc(N)n5nc(-c6ccco6)nc5n4)CC3)c2)CC1 [Example 82, (4-((7-amino-2-(furan-2-yl)-[1,2,4]triazolo[1,5-a][1,3,5]triazin-5-yl)-L-prolyl)piperazin-1-yl)(3-(4-methylpiperazin-1-yl)phenyl)methanone]
